Measurements from patent US20090118135A1, “METHODS AND COMPOUNDS FOR REGULATING APOPTOSIS” (The Burnham Institute, priority 2007, published 2009).
Read-outs that look alike come from different tables or passages of the source.

Target: T1, GST-Bcl-B (Homo sapiens, UniProt Q9HD36)
T1 sequence (Q9HD36 1-182 limits assumed): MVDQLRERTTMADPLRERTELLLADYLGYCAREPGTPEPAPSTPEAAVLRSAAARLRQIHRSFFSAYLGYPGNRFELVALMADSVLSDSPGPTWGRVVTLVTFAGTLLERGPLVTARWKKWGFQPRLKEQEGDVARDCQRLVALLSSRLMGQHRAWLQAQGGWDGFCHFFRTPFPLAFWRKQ
Experiment: Bcl-B/FITC-TR3-r8 fluorescence polarization competition (displacement) assay, HTS and dose-response

[1] = Table 8, NCI Structural library, Binding Assay, FP, Concentration 0.02 uM
[2] = read-out: Result Value (Result Type % Inhibition), BCL-b/TR3
[3] = Table 7, NCI Mechanistic library, Binding Assay, FP, Concentration 0.02 uM

Row | SMILES | F Ratio [1] | Is Hit [1] | inhibition at 0.02 µM [2] [%] | inhibition at 0.02 µM (read-out: Result Value (Result Type % Inhibition), BCL-b/TR3, Table 8, NCI Structural library, Binding Assay, FP, Concentration 0.02 uM) [%] | F Ratio [3] | Is Hit [3]
1 | N=C1C(O)C2(I)c3ccccc3N3C(=N)C(O)C4c5ccccc5N1C4C32 (stereo not drawn) [Compound 118176] | 0.5128 | Yes | 62.3 | – | – | –
2 | O=C(O)C1CCCCC1c1c2ccc(=O)c(O)c-2oc2c(O)c(O)ccc12 (stereo not drawn) [Compound 119910] | 0.1582 | Yes | 119 | – | – | –
3 | O=C(O)/C=C/c1c2ccc(=O)c(O)c-2oc2c(O)c(O)ccc12 [Compound 119911] | 0.07992 | Yes | 123 | – | – | –
4 | CC1C2C=CC1C(c1c3ccc(=O)c(O)c-3oc3c(O)c(O)ccc13)C2C(=O)O (stereo not drawn) [Compound 119913] | 0.0972 | Yes | 131 | – | – | –
5 | O=C(O)CCc1c2ccc(=O)c(O)c-2oc2c(O)c(O)ccc12 [Compound 119915] | 0.5317 | Yes | 158 | – | – | –
6 | O=C(O)c1cccc(/N=N/c2c(S(=O)(=O)O)ccc3c2C(=O)c2ccccc2C3=O)c1O [Compound 125908] | 0.2215 | Yes | 124 | – | – | –
7 | Nc1ccc(-c2ccc(Nc3cc(S(=O)(=O)O)c(N)c4c3C(=O)c3ccccc3C4=O)cc2)c(S(=O)(=O)O)c1 [Compound 125910] | 0.2439 | Yes | 123 | – | – | –
8 | CNc1ccc(Nc2ccc(S(=O)(=O)O)cc2)c2c1C(=O)c1ccccc1C2=O [Compound 128437] | 0.9929 | Yes | 166 | – | – | –
9 | O=C(O)c1cnc2c(ccc3ncc(C(=O)O)c(O)c32)c1O [Compound 128884] | 0.205 | Yes | 55.3 | – | – | –
10 | O=[N+]([O-])c1cc(Cc2cc([N+](=O)[O-])c3cccnc3c2O)c(O)c2ncccc12 [Compound 130798] | 0.1969 | Yes | – | 115 | – | –
11 | COc1ccc2nc3cc(Cl)ccc3c(Nc3ccc(O)c(CN4CCN(C)CC4)c3)c2c1.Cl [Compound 130813] | 0.07696 | Yes | 133 | – | – | –
12 | Oc1cc(O)c2c(c1)OC(c1ccc(O)c(O)c1)C(O)C2c1c(O)cc(O)c2c1OC(c1ccc(O)c(O)c1)C(O)C2 (stereo not drawn) [Compound 143099] | 0.1606 | Yes | 84.6 | – | – | –
13 | Oc1cc(O)c2c(c1)OC(c1ccc(O)c(O)c1)C(OC1(c3cc(O)c(O)c(O)c3)Oc3cc(O)cc(O)c3C(O)C1O)C2 (stereo not drawn) [Compound 143101] | 0.1869 | Yes | 82.8 | – | – | –
14 | COC1/C2=C(\O)C3(C)Oc4c5c(O)c6c(O)c(c(CN(C)C)c(O)c6c4C3=O)NC(=O)/C(C)=C\C=C/CC(O)C(C)C(O5)C(C)C(OC2=O)C1C (stereo not drawn) [Compound 145612] | 0.9609 | Yes | 54 | – | – | –
15 | O=S(=O)(O)c1cc(/N=N/c2cccc3ccccc23)c(O)c2ncccc12 [Compound 148354] | 0.07045 | Yes | 102 | – | – | –
16 | CS(=O)(=O)Nc1ccc(Nc2c3ccccc3nc3ccccc23)cc1 [Compound 156305] | 0.1208 | Yes | 58.6 | – | – | –
17 | CCc1c(O)c2c(c(O)c1C(C)=O)C(=O)c1c(cc(O)c(C(=O)O)c1C(=O)O)C2=O [Compound 170005] | 0.1552 | Yes | 123 | – | – | –
18 | N=C(N)NCCCS(=O)(=O)Nc1ccc(Nc2c3ccccc3nc3cc([N+](=O)[O-])ccc23)cc1 [Compound 177365] | – | – | 51.9 | – | 0.439 | Yes
